Reference: article PMC12133982, “Predominant T-cell epitopes of SARS-CoV-2 restricted by multiple prevalent HLA-B and HLA-C allotypes in Northeast Asia” (Frontiers in Immunology, 2025)
Where “and” joins values, the source holds several entries; their conditions need not be identical. Identical values can stand only once. Peptide text beside a SMILES is read from it.

Legend:
HLA-B4001 = HLA-B4001 (Homo sapiens, UniProt P01889, A65T/A93T/A95T/D138N/D98Y/E176V/E69K/N87E/Q56L/Q94N/R180L/S121R/S35A/S48T/T167S/V36M/W171L/Y33H/Y91S); assay: Competitive peptide binding assay, CIR-B4001; conditions: HMy2.CIR-B4001 cells, reference Cy5-[…], class from inhibition at 5 and 15 μM, flow cytometry MFI; read-out: Binding affinity with HLA-B4001
Procedure: (§1) Then, competitive peptide binding assays were performed.

HLA-B4601 = HLA-B4601 (Homo sapiens, UniProt P01889, A329T/A93R/C349S/D201E/E100V/E187L/E204Q/E69M/E70A/I90K/K202T/N87E/R155S/R180W/S121R/S35A/S48A/V306I/V36M/Y140S); assay: Competitive peptide binding assay, CIR-B4601; conditions: for IC50: HMy2.CIR-B4601 cells, reference Cy5-[…], class from inhibition at 5 and 15 μM, flow cytometry MFI, read-out: Binding affinity with HLA-B4601; for inhibition at 5 µM: read-out: Inhibition % of Cy5-reference peptide binding, CIR-B4601, 5μM peptide; for inhibition at 15 µM: read-out: Inhibition % of Cy5-reference peptide binding, CIR-B4601, 15μM peptide
Procedure: as §1

HLA-B1501 = HLA-B1501 (Homo sapiens, UniProt P01889, A329T/A93T/A95T/C349S/D201E/D98Y/E187L/E204Q/E69M/E70A/K202T/N87E/Q94N/R155S/R180W/S121R/S35A/S48A/V306I/V36M/Y140S/Y91S); assay: Competitive peptide binding assay, CIR-B1501; conditions: HMy2.CIR-B1501 cells, reference Cy5-[…], class from inhibition at 5 and 15 μM, flow cytometry MFI; read-out: Binding affinity with HLA-B1501
Procedure: as §1

HLA-B4403 = HLA-B4403 (Homo sapiens, UniProt P01889, A223V/A65T/A93T/A95T/D201E/D98Y/E176V/E187L/E204Q/E69K/G107R/H137Y/K202T/L105A/L119I/N104T/N87E/Q56L/Q94N/R106L/R155S/R180L/S101N/S121R/S35A/S48T/T118I/V36M/W191S/Y140D/Y91S); assay: Competitive peptide binding assay, CIR-B4403; conditions: HMy2.CIR-B4403 cells, reference Cy5-CYMEAVAL, class from inhibition at 5 and 15 μM, flow cytometry MFI; read-out: Binding affinity with HLA-B4403
Procedure: as §1

HLA-B1301 = HLA-B1301 (Homo sapiens, UniProt P01889, A65T/A93T/A95T/D138N/D201E/D98Y/E176V/E204Q/E69M/E70A/G107R/K202T/L105A/L119I/N104T/N87E/Q94N/R106L/R155S/R169L/R180L/S101N/S121R/S35A/S48T/T118I/V127L/V36M/Y140L/Y91S); assay: Competitive peptide binding assay, CIR-B1301; conditions: HMy2.CIR-B1301 cells, reference Cy5-[…], class from inhibition at 5 and 15 μM, flow cytometry MFI; read-out: Binding affinity with HLA-B1301
Procedure: as §1

HLA-B5101 = HLA-B5101 (Homo sapiens, UniProt P01889, A329T/A93T/A95T/C349S/D138N/D201E/D98Y/E187L/E204Q/E69T/G107R/I218V/K202T/L105A/L119W/N104I/Q94N/R106L/R155S/R180L/S101N/S121T/S35A/S48A/V306I/V36M/Y195H/Y91F); assay: Competitive peptide binding assay, CIR-B5101; conditions: HMy2.CIR-B5101 cells, reference Cy5-[…], class from inhibition at 5 and 15 μM, flow cytometry MFI; read-out: Binding affinity with HLA-B5101
Procedure: as §1

HLA-B1502 = HLA-B1502 (Homo sapiens, UniProt P01889, A329T/A93T/A95T/C349S/D201E/D98Y/E187L/E204Q/E69M/E70A/H137Y/K202T/L119I/Q94N/R155S/R180L/S121R/S35A/S48A/T118I/V306I/V36M/Y140S/Y91S); assay: Competitive peptide binding assay, CIR-B1502; conditions: HMy2.CIR-B1502 cells, reference Cy5-[…], class from inhibition at 5 and 15 μM, flow cytometry MFI; read-out: Binding affinity with HLA-B1502
Procedure: as §1

HLA-B3501 = HLA-B3501 (Homo sapiens, UniProt P01889, A329T/A93T/A95T/C349S/D201E/D98Y/E176V/E187L/E204Q/E69T/I218V/K202T/L119I/Q94N/R155S/R180L/S121R/S35A/S48A/T118I/V127L/V306I/V36M/Y140S/Y91F); assay: Competitive peptide binding assay, CIR-B3501; conditions: HMy2.CIR-B3501 cells, reference Cy5-[…], class from inhibition at 5 and 15 μM, flow cytometry MFI; read-out: Binding affinity with HLA-B3501
Procedure: as §1

HLA-B5801 = HLA-B5801 (Homo sapiens, UniProt P01889, A329T/C349S/D201E/D98Y/E176V/E187L/E204Q/E69T/G107R/I218V/I90N/K202T/L105A/L119I/N104I/N87E/Q89R/Q94S/R106L/R155S/R180L/R86G/S101N/S121R/S35A/S48A/T118I/V127L/V306I/V36M/Y140S/Y91M); assay: Competitive peptide binding assay, CIR-B5801; conditions: HMy2.CIR-B5801 cells, reference Cy5-[…], class from inhibition at 5 and 15 μM, flow cytometry MFI; read-out: Binding affinity with HLA-B5801
Procedure: as §1

HLA-B1302 = HLA-B1302 (Homo sapiens, UniProt P01889, A65T/A93T/A95T/D138N/D201E/D98Y/E176V/E204Q/E69M/E70A/G107R/K202T/L105A/L119W/N104T/N87E/Q94N/R106L/R155S/R169L/R180L/S101N/S121T/S35A/S48T/V127L/V36M/Y140L/Y91S); assay: Competitive peptide binding assay, CIR-B1302; conditions: HMy2.CIR-B1302 cells, reference Cy5-MMWYWGPSL, class from inhibition at 5 and 15 μM, flow cytometry MFI; read-out: Binding affinity with HLA-B1302
Procedure: as §1

HLA-B0702 = biological target: T1, HLA-B0702 (Homo sapiens, UniProt P01889); assay: Competitive peptide binding assay, CIR-B0702; conditions: HMy2.CIR-B0702 cells, reference Cy5-[…], class from inhibition at 5 and 15 μM, flow cytometry MFI
T1 construct: expressed in transfected cells; host or cells: HMy2.CIR
Procedure: as §1

Row | SMILES | IC50 (HLA-B4001) | IC50 (HLA-B4601) | inhibition at 5 µM (HLA-B4601) | inhibition at 15 µM (HLA-B4601) | IC50 (HLA-B1501) | IC50 (HLA-B4403) | IC50 (HLA-B1301) | IC50 (HLA-B5101) | IC50 (HLA-B1502) | IC50 (HLA-B3501) | IC50 (HLA-B5801) | IC50 (HLA-B1302) | IC50 (HLA-B0702)
1 | CC[C@H](C)[C@H](NC(=O)[C@H](C)NC(=O)[C@H](C)NC(=O)[C@H](CC(N)=O)NC(=O)[C@H](CC(N)=O)NC(=O)[C@H](C)NC(=O)[C@@H]1CCCN1C(=O)[C@@H](N)CC(N)=O)C(=O)N[C@H](C(=O)O)C(C)C [Epitope Y18] (H-NPANNAAIV-OH; N-terminus and C-terminus assumed) | > 15 µM | > 15 µM | 12.5% | 42.5% | 5 to 15 µM | > 15 µM |  |  |  |  |  |  | 
2 | CSCC[C@H](NC(=O)[C@H](CCSC)NC(=O)[C@H](CO)NC(=O)[C@H](Cc1ccccc1)NC(=O)[C@H](Cc1c[nH]cn1)NC(=O)[C@H](CCCCN)NC(=O)[C@H](CCCNC(=N)N)NC(=O)[C@H](CC(C)C)NC(=O)[C@@H](N)Cc1ccc(O)cc1)C(=O)O [Epitope Y28] (H-YLRKHFSMM-OH; N-terminus and C-terminus assumed) |  | < 5 µM | 85.7% | 91.8% | < 5 µM |  | > 15 µM | > 15 µM | > 15 µM | 5 to 15 µM | > 15 µM |  | 
3 | CC(C)C[C@H](NC(=O)[C@@H](NC(=O)[C@@H](NC(=O)CNC(=O)[C@H](CCC(N)=O)NC(=O)[C@@H]1CCCN1C(=O)[C@H](CC(C)C)NC(=O)[C@H](CCC(N)=O)NC(=O)[C@@H](N)CC(C)C)[C@@H](C)O)[C@@H](C)O)C(=O)O [Epitope Y61] (H-LQLPQGTTL-OH; N-terminus and C-terminus assumed) |  | > 15 µM | 20% | 33.6% |  |  |  | 5 to 15 µM |  | < 5 µM | 5 to 15 µM |  | 
4 | CC(C)[C@H](NC(=O)[C@H](CC(N)=O)NC(=O)[C@H](Cc1ccc(O)cc1)NC(=O)[C@H](C)NC(=O)[C@@H](N)CCCCN)C(=O)N[C@H](C(=O)N[C@@H](CCC(N)=O)C(=O)N[C@@H](C)C(=O)N[C@@H](Cc1ccccc1)C(=O)O)[C@@H](C)O [Epitope Y62] (H-KAYNVTQAF-OH) | > 15 µM | 5 to 15 µM |  |  | 5 to 15 µM | 5 to 15 µM |  |  |  | < 5 µM | 5 to 15 µM | > 15 µM | > 15 µM
5 | CC[C@H](C)[C@H](NC(=O)[C@@H]1CCCN1C(=O)[C@@H]1CCCN1C(=O)[C@@H](NC(=O)[C@H](CCCCN)NC(=O)[C@H](Cc1ccc(O)cc1)NC(=O)[C@@H](NC(=O)[C@H](CCC(N)=O)NC(=O)[C@@H](N)CCCCN)[C@@H](C)CC)[C@@H](C)O)C(=O)O [Epitope Y82] (H-KQIYKTPPI-OH; N-terminus and C-terminus assumed) |  |  |  |  | > 15 µM |  |  | > 15 µM | > 15 µM | < 5 µM | 5 to 15 µM |  | 
6 | CC(C)C[C@H](NC(=O)[C@H](CCC(N)=O)NC(=O)[C@@H](NC(=O)[C@H](CS)NC(=O)[C@H](Cc1ccccc1)NC(=O)[C@H](CO)NC(=O)CNC(=O)[C@H](Cc1ccc(O)cc1)NC(=O)[C@H](CCC(N)=O)NC(=O)[C@@H](N)CC(C)C)[C@@H](C)O)C(=O)O [Epitope Y88] (H-LQYGSFCTQL-OH; N-terminus and C-terminus assumed) |  |  |  |  | > 15 µM |  |  | > 15 µM |  | 5 to 15 µM | > 15 µM |  | 
7 | CC[C@H](C)[C@H](NC(=O)[C@H](CC(C)C)NC(=O)[C@H](CS)NC(=O)CNC(=O)[C@H](C)NC(=O)[C@H](CCCNC(=N)N)NC(=O)[C@@H](NC(=O)[C@H](CCC(N)=O)NC(=O)[C@@H](N)Cc1ccccc1)[C@@H](C)O)C(=O)O [Epitope Y89] (H-FQTRAGCLI-OH; N-terminus and C-terminus assumed) | 5 to 15 µM | > 15 µM |  |  | > 15 µM | > 15 µM |  |  |  | > 15 µM | > 15 µM | < 5 µM and > 15 µM | 
8 | CC(C)[C@H](NC(=O)[C@@H](NC(=O)[C@@H](N)Cc1ccccc1)C(C)C)C(=O)N[C@@H](CO)C(=O)N[C@H](C(=O)NCC(=O)N[C@@H](Cc1ccc(O)cc1)C(=O)N[C@@H](Cc1c[nH]cn1)C(=O)N[C@@H](Cc1ccccc1)C(=O)O)[C@@H](C)O [Epitope Y167] (H-FVVSTGYHF-OH; N-terminus and C-terminus assumed) |  | 5 to 15 µM |  |  | > 15 µM | > 15 µM | > 15 µM |  | 5 to 15 µM | 5 to 15 µM | > 15 µM |  | > 15 µM
9 | CC[C@H](C)[C@H](NC(=O)[C@H](Cc1ccc(O)cc1)NC(=O)[C@H](CCC(N)=O)NC(=O)[C@H](CCC(=O)O)NC(=O)[C@@H](N)Cc1ccc(O)cc1)C(=O)N[C@@H](CCCCN)C(=O)N[C@@H](Cc1c[nH]c2ccccc12)C(=O)N1CCC[C@H]1C(=O)N[C@@H](Cc1c[nH]c2ccccc12)C(=O)O [Epitope Y230] (H-YEQYIKWPW-OH; N-terminus and C-terminus assumed) | > 15 µM | > 15 µM |  |  | > 15 µM | < 5 µM |  |  | > 15 µM | > 15 µM | 5 to 15 µM |  | 
10 | CC[C@H](C)[C@H](NC(=O)[C@@H](NC(=O)[C@H](CC(N)=O)NC(=O)[C@H](CCCNC(=N)N)NC(=O)[C@H](CCCCN)NC(=O)[C@@H](NC(=O)[C@H](Cc1ccc(O)cc1)NC(=O)[C@H](C)NC(=O)[C@@H](N)Cc1ccccc1)[C@@H](C)O)C(C)C)C(=O)O [Epitope Y276] (H-FAYTKRNVI-OH; N-terminus and C-terminus assumed) |  |  |  |  | > 15 µM |  | < 5 µM | 5 to 15 µM | > 15 µM | > 15 µM |  |  | 
